From patent US20070026051A1, “Use of tripolidine in providing refreshedness on waking” (priority 2003, published 2007)

What was measured:
[1] = system: patients with temporary sleep disturbance; experiment: Clinical trial: wrist actimetry (SDI, time to sleep onset); type: in vivo, human; parameters: SDI compared to placebo: dose or concentration left out as unconfirmed
Source text: The efficacy of triprolidine in enabling a patient to feel refreshed or alert upon waking after taking triprolidine prior to sleeptime was investigated using patients with a history of sleep disorders and utilising triprolidine prepared in accordance with example 1.
(§1) The study herein utilised the following determination methods:— • (a) Karolinska scale as defined in: Int. J. Neuroscience 52 29-37 (1990); and—validation: Sleep 17 (3) 236-41 (1994) • (b) Loughborough Sleep log as defined in: Sleep 17 (2) 146-159 (1994); and • Sleep 18 (2) 127-134 (1995) • (c) Actimetry—AW4 actimeters (Cambridge Neurotechnology) were worn continuously throughout the study. A button was pressed at night when the subject desired to go to sleep and again in the morning upon waking. The results of the actimeter study were analysed in the manner defined by Horne et al (Sleep, 17(2); 146-159). SDI % was calculated as follows:— SDI=Number of 30 second epochs with movement×100 • Number of 30 second epochs from total time spent in bed This is the measure of: • 1. The length of time it took to fall asleep • 2. Any awakenings throughout the sleep period • Expressed as a % of total time spent in bed. Study Objectives • To evaluate the effects of two doses of triprolidine compared with placebo. Study Design […]
Male and Female candidates aged 18 years and above were recruited to one of five research centres by means of local advertising. […]
In the trial, patients were tested during a seven day period and the results have been analysed for a mean of three days in the middle of this period. […]
(§2) Generally the treatment groups were well balanced in terms of the demographic data. Unless otherwise mentioned all group data was analysed using ANOVA. In two cases, namely, how the patient felt 15 minutes after awakening in the Loughborough Sleep Log and the Karolinska Sleepiness Scale at 20 minutes, the two variables were analysed using ANCOVA by including the weekend and the mean of Friday/Saturday/Sunday night as a covariate. […]

[2] = system: patients with temporary sleep disturbance; experiment: Clinical trial: Loughborough sleep log (subjective); type: in vivo, human; parameters: dose or concentration left out as unconfirmed; settings: mean of the 3 nights, p<0.05
Source text: as §1
Candidates were required to complete a questionnaire 15 minutes after awaking on the feeling of refreshedness assessed on a 5-point scale, the Loughborough sleep log.
Generally the treatment groups were well balanced in terms of the demographic data. Unless otherwise mentioned all group data was analysed using ANOVA. […]

[3] = system: patients with temporary sleep disturbance; experiment: Clinical trial: Karolinska 9-point sleepiness scale; type: in vivo, human
Source text: The study herein utilised the following determination methods:— • (a) Karolinska scale as defined in: Int. J. Neuroscience 52 29-37 (1990); and—validation: Sleep 17 (3) 236-41 (1994) • (b) Loughborough Sleep log as defined in: Sleep 17 (2) 146-159 (1994); and • Sleep 18 (2) 127-134 (1995) • (c) Actimetry—AW4 actimeters (Cambridge Neurotechnology) were worn continuously throughout the study. A button was pressed at night when the subject desired to go to sleep and again in the morning upon waking. The results of the actimeter study were analysed in the manner defined by Horne et al (Sleep, 17(2); 146-159). SDI % was calculated as follows:— SDI=Number of 30 second epochs with movement×100 • Number of 30 second epochs from total time spent in bed This is the measure of: • 1. The length of time it took to fall asleep • 2. Any awakenings throughout the sleep period • Expressed as a % of total time spent in bed. Study Objectives • To evaluate the effects of two doses of triprolidine compared with placebo. Study Design
A multiple-dose, placebo-controlled, parallel-group, double-blind, randomised study investigating the effects of 2.5 mg and 5 mg triprolidine in patients with temporary sleep disturbance.
Male and Female candidates aged 18 years and above were recruited to one of five research centres by means of local advertising. Candidates were screened by means of a telephone questionnaire and selected candidates invited for interview at the research centre. Key inclusion criteria used to select candidates for the study were: • A record of poor sleep at least 2 nights per week • A record of poor sleep for at least 1 week but not more than 3 months • Sleep disturbance not caused by underlying disease • No excess use of alcohol or drugs • Sleep disturbance affected daytime functioning
The candidates came to the research centre on Thursday or Friday and were fitted with a wrist actimeter (AW4 from Cambridge Technology) to establish a baseline measure for SDI and were provided with diary cards to record subjective assessments for the Loughborough Sleep Log and the Karolinska Sleepiness Scale. They returned to the investigational site on the Monday and were issued with the study compositions (2.5 mg triprolidine, 5 mg triprolidine or placebo). […]
as §2

volunteers = settings: single doses 10 mg or 20 mg sustained release at bedtime; cited from earlier work
[4] = both treatments (2.5 mg and 5 mg), every treatment night
[5] = 2.5 mg triprolidine, mean of the 3 nights

Cc1ccc(/C(=C\CN2CCCC2)c2ccccn2)cc1 [triprolidine]
SDI as compared with placebo [1, 4]: reduced | sleep latency onset as compared with placebo [1, 4]: reduced | SDI compared to placebo ([1]; triprolidine, mean of the 3 nights, p<0.01): significantly reduced | feeling of refreshedness 15 minutes after waking vs placebo (Loughborough sleep log) [2]: more refreshed | percentage of people feeling alert, very alert or extremely alert on waking vs placebo (Karolinska log) [3, 5]: greater percentage | percentage of people feeling sleepy, some effort, or very sleepy, great effort to keep awake on waking vs placebo (Karolinska log) [3, 5]: lower percentage | residual hangover effects/morning grogginess [3, 5]: no evidence of residual hangover effects/morning grogginess | daytime sleepiness ([3]; either dose of triprolidine): lack of daytime sleepiness | sleep onset latency (time required to fall asleep) compared with placebo (volunteers): did not significantly alter | total sleep time compared with placebo (volunteers): no effect | wakefulness during sleep compared with placebo (volunteers): no effect
